What was measured:
Type in all cases: biochemical
CYP1A2 = target: T1, CYP1A2 (Homo sapiens, UniProt P05177); experiment: Cocktail assay for CYPs, phenacetin O-deethylation (CYP1A2), human liver microsomes; conditions: 10 μM phenacetin, 0.1 mg/mL human liver microsomes, 10 min at 37° C.; read-out: CYP IC50 (nM) 1A2
T1 construct: 0.1 mg/mL protein human liver microsomes (BD Gentest); tissue BD Gentest; host or cells: human liver microsomes
T1 sequence (P05177 1-516): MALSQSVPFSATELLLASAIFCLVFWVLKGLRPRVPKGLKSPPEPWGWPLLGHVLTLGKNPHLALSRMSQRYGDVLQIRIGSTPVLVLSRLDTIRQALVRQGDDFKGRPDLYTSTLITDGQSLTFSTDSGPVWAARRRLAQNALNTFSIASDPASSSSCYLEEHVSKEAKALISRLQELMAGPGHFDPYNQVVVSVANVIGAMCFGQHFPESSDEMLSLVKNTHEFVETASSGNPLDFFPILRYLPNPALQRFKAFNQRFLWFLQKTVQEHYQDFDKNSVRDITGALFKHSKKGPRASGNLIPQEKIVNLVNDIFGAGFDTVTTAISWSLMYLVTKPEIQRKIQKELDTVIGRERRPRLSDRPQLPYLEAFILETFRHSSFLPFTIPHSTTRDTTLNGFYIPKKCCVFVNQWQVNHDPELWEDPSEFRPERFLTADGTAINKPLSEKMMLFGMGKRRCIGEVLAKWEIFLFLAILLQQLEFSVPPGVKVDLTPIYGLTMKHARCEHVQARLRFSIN
Procedure: (§1) Determination of IC50 in a Cocktail Assay for CYPs 1A2, 2C9, 2C19, 2D6 and 3A4:
(§2) This assay was performed in a standard 96-well plate design. IC50 values were calculated from the percent inhibition observed for each test compound at 6 concentrations (for example, 0.0032, 0.016, 0.08, 0.4, 2 and 10 μM). The incubation substrate mix contains 10 μM phenacetin (1A2), 5 μM diclofenac (2C9), 30 μM mephenytoin (2C19), 5 μM dextromethorphan (2D6) and 2 μM midazolam (3A4), 0.1 mg/mL protein human liver microsomes (BD Gentest), 1 mM NAPDH, 3.3 mM MgCl2 and 100 mM potassium phosphate buffer (pH 7.4). The production of the metabolite of each probe substrate was determined after incubation for 10 min at 37° C. Quantitation of the metabolite peak area ratio against an internal standard (tolbutamide) was determined by LC/MS/MS analysis following acetonitrile treatment of the incubations.
(§3) Samples were analyzed in the MRM mode with a SCIEX API-4000 mass spectrometer (Applied Biosystems, Foster City, Calif.), with a Shimadzu LC-20 AD pump (Shimadzu corporation, Kyoto, JP) and a CTC PAL autosampler (Agilent Technologies, Switzerland). A Phenomenex, Luna, 5 nm, 100 A, 2.00×30 mm HPLC column was used for the separation. The mobile phases were: (A) 0.1% formic acid in water and (B) 0.1% formic acid in acetonitrile. The binary gradient was as follows.
(§4) The peak area ratio of the analyte to the internal standard was used to quantify the metabolite. The values of peak area ratios in the presence of test compound were compared to those of maximum or minimum controls and were expressed as % inhibition by interpolating between the maximum and minimum peak area ratios. Incubations with no inhibitor were defined as the maxima. The following equation was used to calculate the % inhibition: [1−[(X−Low control)/(High control−Low control)]]*100 For the IC50 calculation, SigmaPlot was used to plot the mean % inhibition versus the test compound concentrations and for non-linear regression analysis of the data. Depending on the range of data points defining the inhibition curve, the data may have been fit to the 4-parameter logistic equation.

CYP2D6 = target: T2, CYP2D6 (Homo sapiens, UniProt P10635); experiment: Cocktail assay for CYPs, dextromethorphan O-demethylation (CYP2D6), human liver microsomes; conditions: 5 μM dextromethorphan, 0.1 mg/mL human liver microsomes, 10 min at 37° C.; read-out: CYP IC50 (nM) 2D6
T2 construct: 0.1 mg/mL protein human liver microsomes (BD Gentest); tissue BD Gentest; host or cells: human liver microsomes
T2 sequence (P10635 whole entry): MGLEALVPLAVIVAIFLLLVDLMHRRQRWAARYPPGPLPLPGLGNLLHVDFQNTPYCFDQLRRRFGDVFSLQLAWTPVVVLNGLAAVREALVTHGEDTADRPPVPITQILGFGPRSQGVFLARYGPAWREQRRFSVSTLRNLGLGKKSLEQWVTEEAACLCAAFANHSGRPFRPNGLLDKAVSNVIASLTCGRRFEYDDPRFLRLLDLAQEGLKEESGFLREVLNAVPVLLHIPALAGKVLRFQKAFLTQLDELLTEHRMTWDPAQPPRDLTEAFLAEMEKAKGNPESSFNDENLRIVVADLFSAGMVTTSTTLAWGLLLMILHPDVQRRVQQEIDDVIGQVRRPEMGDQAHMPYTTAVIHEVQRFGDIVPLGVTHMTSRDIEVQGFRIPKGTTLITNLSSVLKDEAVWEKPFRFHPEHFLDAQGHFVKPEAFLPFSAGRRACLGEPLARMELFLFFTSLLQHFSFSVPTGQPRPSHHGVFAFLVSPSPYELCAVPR
Procedure: as §1, §2, §3, §4

CYP3A4 [1] = target: T3, CYP3A4 (Homo sapiens, UniProt P08684); experiment: IC50 vs CYP3A by inhibition of lopinavir metabolism in human liver microsomes; design: 0.01 mg/mL protein human liver microsomes (BD Gentest); tissue BD Gentest; host or cells: human liver microsomes; conditions: 1.5 μM lopinavir, 0.01 mg/mL human liver microsomes, 8 min at 37° C.; read-out: CYP IC50 (nM) 3A4 (LPV)
Procedure: Determination of IC50 vs CYP3A by Measurement of Inhibition of Lopinavir Metabolism
This assay was performed in a standard 96-well plate design. IC50 values were calculated from the percent inhibition observed for each test compound at 6 concentrations (for example, 0.098, 0.391, 1.56, 6.25, 25 and 100 nM). The incubation substrate mix contains 1.5 μM lopinavir, 0.01 mg/mL protein human liver microsomes (BD Gentest), 1 mM NAPDH, 3.3 mM MgCl2 and 100 mM potassium phosphate buffer (pH 7.4). The production of the sum of three hydroxylated metabolites (M2: 6-hydroxy lopinavir, M3: 4-hydroxy lopinavir, M4: 4-hydroxy lopinavir (epimer of M3), Kumar et al., 1999) was determined after incubation for 8 min at 37° C. Quantitation of the metabolite peak area ratio against an internal standard (tolbutamide) was determined by LC/MS/MS analysis following acetonitrile treatment of the incubations.
as §3, with “μm,” for “nm,”
Target sequence in this assay (P08684 2-503): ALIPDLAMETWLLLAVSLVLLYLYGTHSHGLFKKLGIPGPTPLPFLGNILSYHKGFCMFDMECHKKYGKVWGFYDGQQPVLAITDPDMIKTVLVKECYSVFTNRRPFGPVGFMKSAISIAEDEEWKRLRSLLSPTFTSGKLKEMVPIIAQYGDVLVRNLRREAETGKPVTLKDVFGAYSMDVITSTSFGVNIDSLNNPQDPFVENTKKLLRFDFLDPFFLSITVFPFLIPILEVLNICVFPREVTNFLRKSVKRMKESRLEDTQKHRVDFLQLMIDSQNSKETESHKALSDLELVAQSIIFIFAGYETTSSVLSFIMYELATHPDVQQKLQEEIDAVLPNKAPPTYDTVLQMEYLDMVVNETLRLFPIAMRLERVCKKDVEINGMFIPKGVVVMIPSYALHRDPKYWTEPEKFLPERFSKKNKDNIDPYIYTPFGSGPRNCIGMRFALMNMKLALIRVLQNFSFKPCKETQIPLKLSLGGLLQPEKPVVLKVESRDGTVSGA
The peak area ratio of the analyte to the internal standard was used to quantify the metabolite. The values of peak area ratios in the presence of test compound were compared to those of maximum or minimum controls and were expressed as % inhibition by interpolating between the maximum and minimum peak area ratios. Incubations with no inhibitor were defined as the maxima and with 5 μM ketoconazole were defined as the minima.
The following equation was used to calculate the % inhibition: [1−[(X−Low control)/(High control−Low control)]]*100
For the IC50 calculation, SigmaPlot was used to plot the mean % inhibition versus the test compound concentrations and for non-linear regression analysis of the data. Depending on the range of data points defining the inhibition curve, the data may have been fit to the 4-parameter logistic equation.

CYP2C19 = target: T4, CYP2C19 (Homo sapiens, UniProt P33261); experiment: Cocktail assay for CYPs, mephenytoin 4′-hydroxylation (CYP2C19), human liver microsomes; conditions: 30 μM mephenytoin, 0.1 mg/mL human liver microsomes, 10 min at 37° C.; read-out: CYP IC50 (nM) 2C19
T4 construct: 0.1 mg/mL protein human liver microsomes (BD Gentest); tissue BD Gentest; host or cells: human liver microsomes
T4 sequence (P33261 whole entry): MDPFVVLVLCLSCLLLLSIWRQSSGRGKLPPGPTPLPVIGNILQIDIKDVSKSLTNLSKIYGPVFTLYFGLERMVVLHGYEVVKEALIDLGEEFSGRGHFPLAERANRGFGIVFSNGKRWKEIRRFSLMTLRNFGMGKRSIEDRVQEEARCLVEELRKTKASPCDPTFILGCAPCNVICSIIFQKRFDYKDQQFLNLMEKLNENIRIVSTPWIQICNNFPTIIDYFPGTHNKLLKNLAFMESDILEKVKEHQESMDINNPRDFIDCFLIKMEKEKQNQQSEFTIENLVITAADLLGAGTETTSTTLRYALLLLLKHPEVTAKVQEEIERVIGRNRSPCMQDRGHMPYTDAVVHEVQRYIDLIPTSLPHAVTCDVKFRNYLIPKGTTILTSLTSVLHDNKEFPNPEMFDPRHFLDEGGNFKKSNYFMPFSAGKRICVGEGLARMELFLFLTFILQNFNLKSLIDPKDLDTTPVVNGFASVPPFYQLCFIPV
Procedure: as §1
as §2, with “IC50 values were calculated from the percent inhibition observed for each test compound at 6 concentrations (for example, 0.0032, 0.016, 0.08, 0.4, 2 and 10 μM).” left out
as §3, §4

CYP3A4 [2] = target: T3, CYP3A4; experiment: Cocktail assay for CYPs, midazolam 1′-hydroxylation (CYP3A4), human liver microsomes; design: 0.1 mg/mL protein human liver microsomes (BD Gentest); tissue BD Gentest; host or cells: human liver microsomes; conditions: 2 μM midazolam, 0.1 mg/mL human liver microsomes, 10 min at 37° C.; read-out: CYP IC50 (nM) 3A4 (MDZ)
Procedure: as §1, §2, §3, §4
Target sequence in this assay (P08684 whole entry): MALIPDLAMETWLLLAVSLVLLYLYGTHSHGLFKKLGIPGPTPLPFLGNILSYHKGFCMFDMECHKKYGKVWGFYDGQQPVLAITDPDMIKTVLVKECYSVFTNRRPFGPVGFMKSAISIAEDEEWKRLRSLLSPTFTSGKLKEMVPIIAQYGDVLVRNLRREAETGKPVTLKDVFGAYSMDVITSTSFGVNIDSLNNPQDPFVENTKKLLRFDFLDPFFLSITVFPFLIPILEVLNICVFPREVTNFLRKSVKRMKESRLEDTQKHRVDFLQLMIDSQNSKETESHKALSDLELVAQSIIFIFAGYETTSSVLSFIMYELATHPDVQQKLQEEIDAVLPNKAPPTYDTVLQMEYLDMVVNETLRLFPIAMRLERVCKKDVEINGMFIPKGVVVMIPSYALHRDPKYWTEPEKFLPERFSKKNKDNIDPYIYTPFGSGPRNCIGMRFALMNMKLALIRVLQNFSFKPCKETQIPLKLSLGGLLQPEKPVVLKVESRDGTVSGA

CYP2C9 = target: T5, CYP2C9 (Homo sapiens, UniProt P11712); experiment: Cocktail assay for CYPs, diclofenac 4′-hydroxylation (CYP2C9), human liver microsomes; conditions: 5 μM diclofenac, 0.1 mg/mL human liver microsomes, 10 min at 37° C.; read-out: CYP IC50 (nM) 2C9
T5 construct: 0.1 mg/mL protein human liver microsomes (BD Gentest); tissue BD Gentest; host or cells: human liver microsomes
T5 sequence (P11712 whole entry): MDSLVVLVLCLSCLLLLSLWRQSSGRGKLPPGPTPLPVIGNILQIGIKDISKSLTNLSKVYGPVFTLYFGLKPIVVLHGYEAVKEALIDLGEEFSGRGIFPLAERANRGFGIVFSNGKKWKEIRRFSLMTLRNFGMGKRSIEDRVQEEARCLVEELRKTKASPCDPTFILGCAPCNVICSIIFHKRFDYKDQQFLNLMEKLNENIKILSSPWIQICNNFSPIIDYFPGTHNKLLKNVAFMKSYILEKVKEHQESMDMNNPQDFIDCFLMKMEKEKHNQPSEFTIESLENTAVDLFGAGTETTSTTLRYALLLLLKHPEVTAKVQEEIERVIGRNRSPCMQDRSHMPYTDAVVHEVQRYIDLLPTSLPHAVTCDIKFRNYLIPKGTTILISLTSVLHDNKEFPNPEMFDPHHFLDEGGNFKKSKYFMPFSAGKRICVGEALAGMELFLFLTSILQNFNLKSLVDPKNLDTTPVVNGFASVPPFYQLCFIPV
Procedure: as §1
as §2, with “IC50 values were calculated from the percent inhibition observed for each test compound at 6 concentrations (for example, 0.0032, 0.016, 0.08, 0.4, 2 and 10 μM).” left out
as §3, §4

Row | SMILES | IC50 (CYP1A2) [nM] | IC50 (CYP2D6) [nM] | IC50 (CYP3A4 [1]) [nM] | IC50 (CYP2C19) [nM] | IC50 (CYP3A4 [2]) [nM] | IC50 (CYP2C9) [nM]
1 | O=S(=O)(c1cnc(N2CCN3C[C@H](O)C[C@H]3C2)s1)N1CCCC1c1ccccc1-c1cncn1CCc1ccc(F)cc1 (single isomer, unassigned) [Compound 22a, (7R,8aS)-2-(5-(((R or S)-2-(2-(1-(4-fluoro-phenethyl)-1H-imidazol-5-yl)phenyl)pyrrolidin-1-yl)sulfonyl)thiazol-2-yl) octahydro-pyrrolo[1,2-a] pyrazin-7-ol] | 7020 | 3940 | 1.4 | > 10000 | 5.3 | 6300
2 | O=S(=O)(c1cnc(N2CCN3C[C@H](O)C[C@H]3C2)s1)N1CCCC1c1ccccc1-c1cncn1CCc1ccc(F)cc1 (single isomer, unassigned) [Compound 22b, (7R,8aS)-2-(5-(((R or S)-2-(2-(1-(4-fluoro-phenethyl)-1H-imidazol-5-yl)phenyl)pyrrolidin-1-yl)sulfonyl)thiazol-2-yl) octahydro-pyrrolo[1,2-a] pyrazin-7-ol] | > 10000 | 4620 | 4.5 | > 10000 | 9.6 | 1690
3 | CS(=O)(=O)N1CCCC1c1ccccc1-c1cncn1CCc1ccc(F)cc1 (single isomer, unassigned) [Compound 23a, (R or S)-1-(4-fluorophenethyl)-5-(2-(1-(methylsulfonyl)pyrrolidin-2-yl)phenyl)-1H-imidazole] | > 10000 | 6720 | 58.5 | 6920 | 36.4 | > 10000
4 | CS(=O)(=O)N1CCCC1c1ccccc1-c1cncn1CCc1ccc(F)cc1 (single isomer, unassigned) [Compound 23b, (R or S)-1-(4-fluorophenethyl)-5-(2-(1-(methylsulfonyl)pyrrolidin-2-yl)phenyl)-1H-imidazole] | > 10000 | > 10000 | 17.2 | > 10000 | 17 | > 10000
5 | O=S(=O)(c1ccc(N2CCC(O)CC2)nc1)N1CCCC1c1ccccc1-c1cncn1CCc1ccc(F)cc1 (single isomer, unassigned) [Compound 32, (R or S)-1-(5-((2-(2-(1-(4-fluorophenethyl)-1H-imidazol-5-yl)phenyl)pyrrolidin-1-yl)sulfonyl)pyridin-2-yl) piperidin-4-ol] | > 10000 | 5820 | 0.7 | 3410 | 4.2 | 3720
6 | O=S(=O)(c1ccc(N2CCC(O)CC2)nc1)N1CCCC1c1ccccc1-c1cncn1CCc1ccc(F)cc1 (single isomer, unassigned) [Compound 33, (R or S)-1-(5-((2-(2-(1-(4-fluorophenethyl)-1H-imidazol-5-yl)phenyl)pyrrolidin-1-yl)sulfonyl)pyridin-2-yl) piperidin-4-ol] | > 10000 | 6500 | 12.6 | > 10000 | 22.5 | 2890

Second part, the compound after the results:

Row | IC50 (CYP1A2) [nM] | IC50 (CYP2D6) [nM] | IC50 (CYP3A4 [1]) [nM] | IC50 (CYP2C19) [nM] | IC50 (CYP3A4 [2]) [nM] | IC50 (CYP2C9) [nM] | SMILES
7 | > 10000 | 6990 | 0.7 | 2390 | 3.5 | 1520 | CN(C)c1ccc(S(=O)(=O)N2CCCC2c2ccccc2-c2cncn2CCc2ccc(F)cc2)cn1 (single isomer, unassigned) [Compound 28a, (R or S)-5-((2-(2-(1-(4-fluorophenethyl)-1H-imidazol-5-yl)phenyl)pyrrolidin-1-yl)sulfonyl)-N,N-dimethylpyridin-2-amine]
8 | > 10000 | > 10000 | 10.1 | 4980 | 11.8 | 1150 | CN(C)c1ccc(S(=O)(=O)N2CCCC2c2ccccc2-c2cncn2CCc2ccc(F)cc2)cn1 (single isomer, unassigned) [Compound 28b, (R or S)-5-((2-(2-(1-(4-fluorophenethyl)-1H-imidazol-5-yl)phenyl)pyrrolidin-1-yl)sulfonyl)-N,N-dimethylpyridin-2-amine]
9 | > 10000 | 4220 | – | 7790 | 14.3 | > 10000 | CN1CCCC1c1ccccc1-c1cncn1CCc1ccc(F)cc1 (single isomer, unassigned) [Compound 45a, (R or S)-1-(4-fluorophenethyl)-5-(2-(1-methylpyrrolidin-2-yl)phenyl)-1H-imidazole]
10 | > 10000 | 2480 | – | > 10000 | 22.8 | > 10000 | CN1CCCC1c1ccccc1-c1cncn1CCc1ccc(F)cc1 (single isomer, unassigned) [Compound 45b, (R or S)-1-(4-fluorophenethyl)-5-(2-(1-methylpyrrolidin-2-yl)phenyl)-1H-imidazole]
